Like-named read-outs stand apart in the source and are kept apart here. Ends that are not written are not given here.
Experiments:
[1] = Solubility of peptides in water and DMSO
Method: Some of the peptides used as candidate competitors, especially the pentapeptides, were dissolved in dimethylsulfoxide (DMSO) because they were not soluble in water. For all of these tests the same final concentration of DMSO was added to each cell monolayer.

SEC receptor [2] = details: cited from earlier work
SEC receptor [3] = assay: Competition for binding to, and cross-linking of, the SEC receptor of HepG2 cells; set-up: species or system human
substance P receptor = target: T1, substance P receptor (Rattus norvegicus, UniProt P14600); assay: Competition for binding of substance P to a stable transfected cell line expressing the substance P receptor
T1 construct: expressed in transfected cells

SEC receptor [4] = assay: Competition for internalization of α1 AT-125I trypsin complexes by HepG2 cells; type: cell-based, human; details: 50-fold molar excess, 60 minutes at 37° C., Proteinase K-resistant radioactivity
Method: (§1) FIG. 2 presents two bar graphs which show competition for binding and internalization of α1 AT^125 I trypsin complexes by HepG2 cells. For panel a, HepG2 cells were incubated for 2 hours at 4° C. in binding buffer, α1 AT-^125 I trypsin complexes in subsaturating concentrations (50 nM) and competing unlabelled proteins or synthetic peptides in 50-fold molar excess. The cells were then rinsed, homogenized and cell-associated radioactivity determined. Binding in the absence of competitor was arbitrarily designated 0% inhibition of binding on the vertical axis. Results represent mean and 1 standard deviation for 3 separate determinations of each competitor. For panel b, HepG2 cells were incubated for 1 hour at 37° C. in binding buffer, α1 AT^125 I trypsin complexes in subsaturating concentrations (50 nM) and competing unlabelled proteins or synthetic peptides in 50-fold molar excess. […] Internalization in the absence of competitor was arbitrarily designated 0% inhibition of internalization on the vertical axis. Results represent mean and 1 standard deviation for 3 separate determinations of each putative competitor. Partial amino acid sequences for α1 AT and peptides are shown at the top of each panel.
The cells were then rinsed extensively and incubated with Proteinase K for an additional 60 minutes at 4° C. to remove any surface bound radiolabelled ligand. Internalization was defined as radioactivity associated with the resulting cell pellet. […] Higher degrees of inhibition were achieved by higher concentrations of competitors in other tests.

SEC receptor [5] = assay: Direct binding of 125I peptide 105C to HepG2 cells; set-up: species or system human
Method: (§2) Left panel a: cells were incubated 2 hours at 4° C. with several different concentrations of ^125 I peptide 105C in the absence (open circles, total ligand binding) or the presence of unlabelled peptide 105C in 200-fold molar excess (filled circles, nonspecific binding). The difference was designated specific binding (open triangles). The cells were then rinsed and cell-associated radioactivity was determined by gamma counting of cell homogenates. Right panel b: cells were incubated for 2 hours at 4° C. with ^125 I peptide 105C in subsaturating concentrations (50 nM) in the absence or presence of unlabelled competing proteins or peptides as indicated on the horizontal axis. The molar excess in fold of each competitor is indicated in parentheses. Binding in the absence of competitor was arbitrarily designated 0% inhibition of binding on the vertical axis.
(§3) The direct binding of peptide 105C to HepG2 cells was also examined. This peptide was radioiodinated by the chloramine T method and purified by reverse phase C:18 chromatography. Separate monolayers of cells were incubated with ^125 I-105C in several different concentrations either in the absence or presence of unlabelled 105C in 200-fold molar excess (FIG. 3, left panel a). […]

SEC receptor [6] = assay: Competition for binding of α1 AT-125I trypsin complexes to HepG2 cells; set-up: species or system human; details: complexes 50 nM, competitor in 50-fold molar excess, 2 hrs at 4° C.
Method: as §1, with “panel. […]” for “panel.”

SEC receptor [7] = assay: Competition for binding of 125I peptide 105Y to HepG2 cells; set-up: species or system human; details: 125I peptide 105Y 50 nM, 2 hrs at 4° C., unlabelled competitor
Method: For each test HepG2 cells were incubated for 2 hrs at 4° C. in binding buffer, ^125 I peptide 105Y at saturating concentrations (50 nM) and competing unlabelled synthetic peptides in the concentrations specified on the horizontal axis. […] Binding in the absence of competitor was arbitrarily designated 100% binding on the vertical axis. Each data point and set of error bars represent mean and 1 standard deviation for four separate determinations. Partial amino acid sequences of α1 AT and synthetic peptides are shown at the top of each of panels a, b and c.
Each bar represents mean and 1 standard deviation for 3 separate determinations.

SEC receptor [8] = assay: Competition for binding of 125I peptide 105C to HepG2 cells; set-up: species or system human; details: 125I peptide 105C 50 nM, 2 hours at 4° C.
Method: as §2, §3

synthesis of α1 AT = details: cited from earlier work
SEC receptor [9] = details: unlabelled competitor; cited from earlier work

T1 sequence (P14600 whole entry): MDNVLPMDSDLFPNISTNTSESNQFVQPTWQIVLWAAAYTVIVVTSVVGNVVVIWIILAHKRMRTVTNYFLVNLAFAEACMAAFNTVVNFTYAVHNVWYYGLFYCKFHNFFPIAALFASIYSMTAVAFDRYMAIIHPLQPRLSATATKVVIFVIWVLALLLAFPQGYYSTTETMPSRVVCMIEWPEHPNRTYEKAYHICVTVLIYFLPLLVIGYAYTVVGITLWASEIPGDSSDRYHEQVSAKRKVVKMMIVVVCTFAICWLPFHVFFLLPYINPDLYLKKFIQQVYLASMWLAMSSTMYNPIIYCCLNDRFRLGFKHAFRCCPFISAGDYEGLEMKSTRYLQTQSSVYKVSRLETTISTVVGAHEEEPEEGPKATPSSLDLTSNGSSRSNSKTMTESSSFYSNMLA

Molecule: EVKFNKP [peptide 105B, Glu-Val-Lys-Phe-Asn-Lys-Pro]
- solubility [1]: soluble in both water and DMSO

Molecule: α1 ACT-cathepsin G complexes: serpin-enzyme complex
- blocking of binding of 125I peptide 105Y (SEC receptor [2]): blocked

Molecule: amyloid-β-protein
- competition for binding to, and cross-linking of, the SEC receptor (SEC receptor [3]): compete for binding to, and cross-linking of, the SEC receptor
- competition for binding of substance P (substance P receptor): do not compete for binding of substance P

Molecule: native α1 AT: purified human plasma α1-antitrypsin, 55 kDa serum glycoprotein
- inhibition of internalization of α1 AT-125I trypsin complexes (SEC receptor [4]): no significant inhibition of internalization

Molecule: Phe-Val-Tyr-Leu-Ile (FVYLI) [peptide 105C]
- direct binding to HepG2 cells (SEC receptor [5]; 125I-105C with or without unlabelled 105C in 200-fold molar excess): specific and saturable binding
- Kd (SEC receptor [5]; 125I-105C, HepG2 cells, 2 hours at 4° C., read-out: point of half-maximal saturation): ~40 nM
- inhibition of binding of α1 AT-125I trypsin complexes to HepG2 cells (SEC receptor [6]): inhibits binding
- inhibition of internalization of α1 AT-125I trypsin complexes (SEC receptor [4]): inhibits internalization as effectively as peptide 105Y and unlabelled α1 AT-trypsin complexes
- competition for binding of 125I peptide 105Y to HepG2 cells (SEC receptor [7]): compete as effectively as peptide 105Y
- competition for binding of 125I peptide 105Y to HepG2 cells (SEC receptor [7]; listed as FVYLI): no difference in inhibition of binding

Molecule: CSCC[C@H](NC(=O)[C@H](CC(C)C)NC(=O)[C@H](Cc1cnc[nH]1)NC(=O)CNC(=O)[C@@H](NC(=O)[C@H](C)NC(=O)[C@H](Cc1c[nH]c2ccccc12)NC(=O)[C@H](CCC(N)=O)NC(=O)[C@H](CC(N)=O)NC(=O)CNC(=O)[C@H](CC(C)C)NC(=O)[C@H](CCCN=C(N)N)NC(=O)[C@H](CCC(N)=O)NC(=O)[C@@H]1CCC(=O)N1)C(C)C)C(N)=O [bombesin]
- competition for binding to, and cross-linking of, the SEC receptor (SEC receptor [3]): compete for binding to, and cross-linking of, the SEC receptor
- competition for binding of substance P (substance P receptor): do not compete for binding of substance P

Molecule: α1 AT-elastase complexes: complex of α1 AT with neutrophil elastase
- blocking of binding of 125I peptide 105Y (SEC receptor [2]): blocked

Molecule: SIPPEVKFNKPFVYLI [peptide 105Y, carboxy-terminal fragment, amino acids 359-374, of α1 AT]
- inhibition of binding of α1 AT-125I trypsin complexes to HepG2 cells (SEC receptor [6]): inhibits binding
- Kd (SEC receptor [2]; 125I peptide 105Y, HepG2 cells and human blood monocytes, read-out: K2): 40 nM
- direct binding of 125I peptide 105Y (SEC receptor [2]; HepG2 cells and human blood monocytes): bound specifically and saturably
- inhibition of internalization of α1 AT-125I trypsin complexes (SEC receptor [4]): inhibits internalization
- competition for binding of 125I peptide 105Y to HepG2 cells (SEC receptor [7]): compete
- competition for binding of substance P (substance P receptor): do not compete for binding of substance P
- inhibition of binding of 125I 105C (SEC receptor [8]): inhibited
- effect on synthesis of α1 AT (synthesis of α1 AT): mediated an increase in synthesis of α1 AT
- blocking of binding of 125I α1 AT-elastase complexes (SEC receptor [9]): blocked binding

Reference: patent US5175253A, “Binding peptides” (Washington University, priority 1991, dated 1992)
